{"source": "patent US12679832B2", "about": "“Compounds and their uses as CD38 inhibitors” (Nanjing Immunophage Biotech Co., Ltd., priority 2021, dated 2026)", "data": [{"target": "T1, hCD38 Enzyme (Homo sapiens, UniProt P28907)", "T1 construct": "purchased Sino Biological Inc 10818-H08H", "T1 sequence (P28907 43-300 limits assumed)": "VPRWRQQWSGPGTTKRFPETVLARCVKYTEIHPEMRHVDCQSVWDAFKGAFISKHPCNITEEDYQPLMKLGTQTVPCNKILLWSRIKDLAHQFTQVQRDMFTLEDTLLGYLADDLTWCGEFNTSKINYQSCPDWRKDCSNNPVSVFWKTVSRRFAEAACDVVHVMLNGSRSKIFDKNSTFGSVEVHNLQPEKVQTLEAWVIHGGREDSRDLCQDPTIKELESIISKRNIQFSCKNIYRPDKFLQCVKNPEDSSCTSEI", "test": "CD38 hydrolase enzymatic assay", "assay_type": "biochemical", "settings": "rhCD38, ε-NAD substrate, 25° C., point reading time 20 mins; read-out: hCD38 Enzyme inhibition IC50", "units": {"IC50": "nM"}, "values": [{"compound": "CO[C@H]1CC[C@H](NC(=O)c2cc(OC3CCC3)nc(-n3ccnc3)n2)CC1", "note": "[compound 104, 6-cyclobutoxy-2-(1H-imidazol-1-yl)-N-((1r,4r)-4-methoxycyclohexyl)pyrimidine-4-carboxamide]", "IC50": 26}, {"compound": "CO[C@H]1CC[C@H](NC(=O)c2nc(-n3ccnc3)cnc2O)CC1", "note": "[compound 67, 3-hydroxy-6-(1H-imidazol-1-yl)-N-((1r,4r)-4-methoxycyclohexyl)pyrazine-2-carboxamide]", "IC50": "> 10000"}, {"compound": "C[C@H]1CC[C@H](NC(=O)c2cc(C(F)(F)F)nc(-n3ccnc3)n2)CC1", "note": "[compound 146, 2-(1H-imidazol-1-yl)-N-((1r,4r)-4-methylcyclohexyl)-6-(trifluoromethyl) pyrimidine-4-carboxamide]", "IC50": 18}, {"compound": "C[C@H]1CC[C@H](NC(=O)c2cc(OC3COC3)nc(-n3ccnc3)n2)CC1", "note": "[Compound 150]", "IC50": 16}, {"compound": "O=C(O)COc1ncc(NC(=O)c2cc(C(F)(F)F)nc(-n3ccnc3)n2)cn1", "note": "[compound 194, 2-((5-(2-(1H-imidazol-1-yl)-6-(trifluoromethyl)pyrimidine-4-carboxamido)pyrimidin-2-yl)oxy) acetic acid]", "IC50": 30}, {"compound": "O=C(Nc1ccccc1Cl)c1ccnc(-n2ccnc2)n1", "note": "[compound 85, N-(2-chlorophenyl)-2-(1H-imidazol-1-yl)pyrimidine-4-carboxamide]", "IC50": 29}, {"compound": "O=C(Nc1cncc(F)c1)c1cc(C(F)(F)F)nc(-n2ccnc2)n1", "note": "[compound 167, N-(5-fluoropyridin-3-yl)-2-(1H-imidazol-1-yl)-6-(trifluoromethyl) pyrimidine-4-carboxamide]", "IC50": 4}, {"compound": "Cc1nccn1-c1cncc(C(=O)NC2CCCCC2)n1", "note": "[compound 80, N-cyclohexyl-6-(2-methyl-1H-imidazol-1-yl)pyrazine-2-carboxamide]", "IC50": "> 10000"}, {"compound": "CO[C@H]1CC[C@H](NC(=O)c2ccnc(-n3cccn3)n2)CC1", "note": "[compound 100, N-((1r,4r)-4-methoxycyclohexyl)-2-(1H-pyrazol-1-yl)pyrimidine-4-carboxamide]", "IC50": 3430}, {"compound": "CO[C@H]1CC[C@H](NC(=O)c2cc(C#N)nc(-n3ccnc3)n2)CC1", "note": "[compound 106, 6-cyano-2-(1H-imidazol-1-yl)-N-((1r,4r)-4-methoxycyclohexyl)pyrimidine-4-carboxamide]", "IC50": 18}, {"compound": "CC(C)(O)c1ccc(NC(=O)c2cc(C(F)(F)F)nc(-n3ccnc3)n2)cc1F", "note": "[Compound 180]", "IC50": 11}]}]}
